Among the data in ChEMBL document CHEMBL1132017, “In vitro susceptibility of Helicobacter pylori to trifluoromethyl ketones” (1999) are MIC50 values, retold here.

In brackets after ≈: the same amount, converted by molar mass.

The test system of this test is Helicobacter pylori. As to the kind of experiment: In vitro inhibitory activity evaluated against Helicobacter pylori (HP). The test is classed as functional.
On to `O=C(Cc1ccccc1)C(F)(F)F`, for which the MIC50 is over 100 µg/mL. Then `O=C(c1ccccc1)C(F)(F)F`, with over 100 µg/mL; and `O=C(Cc1ccccn1)C(F)(F)F`, with over 100 µg/mL; and `CC(=O)Cc1nc2ccccc2o1`, with 51 µg/mL (≈ 291 µM). `Cc1nc(CC(=O)C(F)(F)F)oc1C` displayed an MIC50 of over 100 µg/mL.

Consider `O=C(c1cccs1)C(F)(F)F`, for which the MIC50 was 53 µg/mL (≈ 294 µM). Then `O=C(Cc1nc2ccccc2s1)C(F)(F)F`, with 70 µg/mL (≈ 285 µM); and `O=C(c1nc2ccccc2o1)C(F)(F)F`, with over 100 µg/mL; and `Cn1c(C(=O)C(F)(F)F)cnc1-c1ccccc1`, with over 100 µg/mL.

With `O=C(c1ccc[nH]1)C(F)(F)F`, the MIC50 is over 100 µg/mL. Then `O=C(c1c[nH]c2ccccc12)C(F)(F)F`, with 12 µg/mL (≈ 56.3 µM). Then `O=C(Cc1nc2ccccc2o1)C(F)(F)F`, with 3.6 µg/mL (≈ 15.7 µM).

On to `O=C(Cc1nc2ccccc2[nH]1)C(F)(F)F`, for which the MIC50 is 52 µg/mL (≈ 228 µM).

The compound `CC[C@H]1OC(=O)[C@H](C)[C@@H](O[C@H]2C[C@@](C)(OC)[C@@H](O)[C@H](C)O2)[C@H](C)[C@@H](O[C@@H]2O[C@H](C)C[C@H](N(C)C)[C@H]2O)[C@](C)(OC)C[C@@H](C)C(=O)[C@H](C)[C@@H](O)[C@]1(C)O` [CLARITHROMYCIN] gave an MIC50 of 1.9 µg/mL (≈ 2.54 µM). Take `CC[C@H]1OC(=O)[C@H](C)[C@@H](O[C@H]2C[C@@](C)(OC)[C@@H](O)[C@H](C)O2)[C@H](C)[C@@H](O[C@@H]2O[C@H](C)C[C@H](N(C)C)[C@H]2O)[C@](C)(O)C[C@@H](C)C(=O)[C@H](C)[C@@H](O)[C@]1(C)O` [ERYTHROMYCIN]: the MIC50 came to 1.8 µg/mL (≈ 2.45 µM). The result for `Cc1ncc([N+](=O)[O-])n1CCO` [METRONIDAZOLE] reads 74 µg/mL (≈ 432 µM).

By MIC50 is commonly meant an inhibitory concentration at the 50% level, which refers to growth in some studies and to a panel of isolates in others. Low values mean greater potency, high ones weaker potency.
